Among the data in the PolyMetriX glass transition set are glass transition temperature values, retold here.

In turn, `*C(=O)Nc1ccc(C2(c3ccc(N4C(=O)c5ccc(*)cc5C4=O)cc3)CCC(CC)CC2)cc1` (repeat unit) had a glass transition temperature of 312.00 °C. With `*C(=O)c1cc(C(=O)c2ccc3c(c2)C(=O)N(c2cccc(N4C(=O)c5ccc(*)cc5C4=O)c2)C3=O)cc(C(C)(C)C)c1` (repeat unit), the glass transition temperature amounted to 264.50 °C. In the case of `*C(=O)c1ccc2c(c1)C(=O)N(c1cccc(Cc3ccc(Cc4cccc(N5C(=O)c6ccc(*)cc6C5=O)c4)cc3)c1)C2=O` (repeat unit) it was 240.00 °C; in that of `*CCCCCC(=O)Oc1ccc(C(C)(C)c2ccc(C(C)(C)c3ccc(OC(=O)c4ccc5c(c4)C(=O)N(*)C5=O)cc3)cc2)cc1` (repeat unit), 104.00 °C; in that of `*CCCCCCCCCCCC(=O)Oc1ccc(C(C)(C)c2ccc(OC(=O)c3ccc4c(c3)C(=O)N(*)C4=O)cc2)cc1` (repeat unit), 93.00 °C. In the case of `*Nc1ccc(C(C)(C)c2ccc(C(C)(C)c3ccc(Nc4ccc(C(O)(c5ccccc5)c5ccc(C(O)(c6ccccc6)c6ccc(*)cc6)cc5)cc4)cc3)cc2)cc1` (repeat unit) it was 177.00 °C; in that of `*Nc1ccc(C(C)(C)c2ccc(NC(=O)c3cc(C(*)=O)cc(N4C(=O)C5C6CCC(C6)C5C4=O)c3)cc2)cc1` (repeat unit), 311.00 °C; in that of `*Nc1ccc(C(C)(C)c2ccc(NC(=O)c3cc(C(*)=O)cc(N4C(=O)C5CC=CCC5C4=O)c3)cc2)cc1` (repeat unit), 308.00 °C. In the case of `*Nc1ccc(C(C)(C)c2cccc(C(C)(C)c3ccc(NC(=C(C#N)C#N)c4ccc(C(*)=C(C#N)C#N)cc4)cc3)c2)cc1` (repeat unit) it was 208.00 °C. Turning to `*Oc1cc(C(C)(C)C)c(Oc2ccc(C(=O)Nc3ccc(C(C)(C)c4ccc(NC(=O)c5ccc(*)cc5)c(C)c4)cc3C)cc2)cc1C(C)(C)C` (repeat unit), the glass transition temperature came to 275.00 °C. In the case of `*Oc1ccc(C(C)(C)c2ccc(OC(=O)CCCCC(*)=O)c(C)c2)cc1C` (repeat unit) it was 33.50 °C; in that of `*Oc1ccc(C(CC)(c2ccccc2)c2ccc(OC(=O)CCCCCCCCC(*)=O)cc2)cc1` (repeat unit), 88.00 °C. For `*Oc1ccc(C2(c3ccc(OC(=O)CCC(*)=O)cc3)c3cc(OC)ccc3-c3ccc([N+](=O)[O-])cc32)cc1` (repeat unit) the value was 230.00 °C; for `*Oc1ccc(C2(c3ccc(OC(=O)CCCC(*)=O)cc3)c3cc(OC)ccc3-c3ccc([N+](=O)[O-])cc32)cc1` (repeat unit), 197.00 °C; for `*Oc1ccc(Oc2ccc(Nc3ccc(S(=O)(=O)c4ccc(Nc5ccc(*)cc5)cc4)cc3)cc2)cc1` (repeat unit), 144.60 °C. In the case of `*c1ccc(-c2cc(C(C)(C)C)c(Oc3ccc(N4C(=O)c5ccc6c7c(ccc(c57)C4=O)C(=O)N(*)C6=O)cc3C(F)(F)F)c(C(C)(C)C)c2)cc1` (repeat unit) it was 456.00 °C.

`*c1ccc(NC2CC(=O)N(c3ccc(-c4sc(-c5ccc(N6C(=O)CC(Nc7ccc(-c8nc(C#N)c(C#N)nc8*)cc7)C6=O)cc5)c(-c5ccccc5)c4-c4ccccc4)cc3)C2=O)cc1` (repeat unit) gave a glass transition temperature of 231.00 °C.

Molecule `*c1ccc(Nc2c(F)c(F)c(-c3c(F)c(F)c(Nc4ccc(S(*)(=O)=O)cc4)c(F)c3F)c(F)c2F)cc1` (repeat unit) gave a glass transition temperature of 332.00 °C.

In turn, `*c1ccc(Nc2ccc(C(c3ccc(Nc4ccc(S(*)(=O)=O)cc4)cc3)(C(F)(F)F)C(F)(F)F)cc2)cc1` (repeat unit) gave a glass transition temperature of 145.00 °C. For `*c1ccc(Nc2ccc(C3(c4ccc(Nc5ccc(S(*)(=O)=O)cc5)c(F)c4)c4ccccc4-c4ccccc43)cc2F)cc1` (repeat unit) the value was 145.00 °C.
